{
  "source": "patent US9901571B2",
  "about": "“Tetrahydropyrazolopyridine derivatives as ghrelin receptor agonists” (RaQualia Pharma Inc., priority 2014, dated 2018)",
  "key": {"human ghrelin receptor": {"biological_target": "T1, human ghrelin receptor (Homo sapiens, UniProt Q92847)", "T1 construct": "expressed in transfected cells; host or cells: HEK293", "T1 sequence (Q92847 whole entry)": "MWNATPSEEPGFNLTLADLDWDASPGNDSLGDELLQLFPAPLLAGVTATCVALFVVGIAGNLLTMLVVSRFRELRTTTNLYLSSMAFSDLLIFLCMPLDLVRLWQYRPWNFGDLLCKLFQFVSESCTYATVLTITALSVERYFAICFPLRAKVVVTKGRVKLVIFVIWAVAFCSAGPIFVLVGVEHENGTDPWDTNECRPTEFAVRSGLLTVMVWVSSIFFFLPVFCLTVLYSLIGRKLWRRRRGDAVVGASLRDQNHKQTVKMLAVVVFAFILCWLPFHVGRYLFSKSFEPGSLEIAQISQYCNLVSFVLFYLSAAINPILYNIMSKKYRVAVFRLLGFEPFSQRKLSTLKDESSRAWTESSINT", "test": "Ghrelin receptor agonistic activity induced Ca2+ influx in HEK293 cells stably expressing human ghrelin receptor", "type": "cell-based", "settings": "11-point dose-response", "description": "Measurement of the ghrelin receptor agonistic activity induced Ca^2+ influx in HEK293 cells stably expressing human ghrelin receptor\nHEK293 cells stably expressing human ghrelin receptor are maintained in Dulbecco's modified Eagle medium (high glucose) supplemented with 10% fetal bovine serum, 100 units/mL penicillin, 100 microg/mL streptomycin and 500 microg/mL G418 at 37° C. in a humidified incubator with 5% CO2 and grown to 60-80% confluence. The day before the assay, the cells are seeded on poly-D-lysine coated 384-well plates (BD FALCON) at a density of 10,000 cells per well and incubated overnight in incubator.\nOn the day of the assay, the cells are washed at three times with assay buffer (Hanks' balanced salt solution with 20 mM HEPES, pH7.4), and are incubated for 1 hour at room temperature to load 0.5 microM Fluo-4 AM reagent (Invitrogen).\nAfter removing Fluo-4, and washing with assay buffer, the cells are added with various concentrations of the compounds. The changes in intracellular calcium concentration are monitored with the fluorescence imaging plate reader, FDSS6000 (Hamamatsu Photonics).\nThe EC50 values for compounds of the present invention are determined from 11-point dose-response studies. Curves are generated using the average of duplicate wells for each data point. Finally, the EC50 values are calculated using the best-fit dose curve determined by XLfit (ID Business Solutions Ltd)."}, "[1]": {"test": "Half-life in human liver microsomes (HLM), HLM CLint", "type": "in vitro ADME", "settings": "for CLint scaled at 1 microM: human, human liver microsomes (XTreme 200), 1 microM test compound, 0.61 mg protein/mL HLM, pH 7.4, 37° C., read-out: HLM CLint (clearance in human liver microsome); for Ratio of HLM CLint over comparison 1: ratio between comparison compound 1 and the example", "description": "Half-Life in Human Liver Microsomes (HLM)\nTest compounds (1 microM) are incubated with 1 mM MgCl2 and 0.61 mg protein/mL HLM (XTreme 200) in 100 mM phosphate buffer (pH 7.4) at 37° C. on the 96-deep well plate. An aliquot of samples is collected at […], where 0 […] the time when NADPH is added into the reaction mixture. Collected aliquots are extracted with acetonitrile solution containing an internal standard. The precipitated protein is spun down in centrifuge (2000 rpm, […]). The compound concentration in supernatant is measured by LC/MS/MS system.\nThe half-life value is obtained by plotting the natural logarithm of the peak area ratio of compound/internal standard versus time. The slope of the line of the best fit through the points yields the elimination rate constant (kel). This is converted to a half-life value using a following equation: Half-life=1n2/kel."}},
  "data": [
    {"smiles": "CC(C)(N)C(=O)N[C@H](CCc1ccc(F)cc1CO)C(=O)N1CCC2=NN(CC(F)(F)F)C(=O)[C@]2(Cc2ccccn2)C1", "note": "[Example 17, 2-amino-N—((R)-4-(4-fluoro-2-(hydroxymethyl)phenyl)-1-oxo-1-((R)-3-oxo-3a-(pyridin-2-ylmethyl)-2-(2,2,2-trifluoroethyl)-3a,4,6,7-tetrahydro-2H-pyrazolo[4,3-c]pyridin-5(3H)-yl)butan-2-yl)-2-methylpropanamide]", "values": [
      {"measurement": "EC50", "setting": "human ghrelin receptor", "result": "< 20", "unit": "nM"},
      {"measurement": "CLint scaled at 1 microM", "setting": "[1]", "result": 56.7, "unit": "mL/min/kg"},
      {"measurement": "Ratio of HLM CLint over comparison 1", "setting": "[1]", "result": 2.3}
    ]},
    {"smiles": "CN1N=C2CCN(C(=O)[C@@H](CCCc3cccc(C(F)F)n3)NC(=O)C(C)(C)N)C[C@@]2(Cc2ccccc2)C1=O", "note": "[Example 13, 2-amino-N—((R)-1-((R)-3a-benzyl-2-methyl-3-oxo-3a,4,6,7-tetrahydro-2H-pyrazolo[4,3-c]pyridin-5(3H)-yl)-5-(6-(difluoromethyl)pyridin-2-yl)-1-oxopentan-2-yl)-2-methylpropanamide]", "values": [
      {"measurement": "EC50", "setting": "human ghrelin receptor", "result": "< 20", "unit": "nM"},
      {"measurement": "CLint scaled at 1 microM", "setting": "[1]", "result": 36, "unit": "mL/min/kg"},
      {"measurement": "Ratio of HLM CLint over comparison 1", "setting": "[1]", "result": 3.6}
    ]},
    {"smiles": "CN1N=C2CCN(C(=O)[C@@H](CCc3ccc(CO)cc3Cl)NC(=O)C(C)(C)N)C[C@@]2(Cc2ccccc2)C1=O", "note": "[Example 3, 2-amino-N—((R)-1-((R)-3a-benzyl-2-methyl-3-oxo-3a,4,6,7-tetrahydro-2H-pyrazolo[4,3-c]pyridin-5(3H)-yl)-4-(2-chloro-4-(hydroxymethyl)phenyl)-1-oxobutan-2-yl)-2-methylpropanamide]", "values": [
      {"measurement": "EC50", "setting": "human ghrelin receptor", "result": "< 20", "unit": "nM"},
      {"measurement": "CLint scaled at 1 microM", "setting": "[1]", "result": 43.5, "unit": "mL/min/kg"},
      {"measurement": "Ratio of HLM CLint over comparison 1", "setting": "[1]", "result": 3.0}
    ]},
    {"smiles": "CN1N=C2CCN(C(=O)[C@@H](CCCc3ccccn3)NC(=O)C(C)(C)N)C[C@@]2(Cc2ccccc2)C1=O", "note": "[Example 9, 2-amino-N—((R)-1-((R)-3a-benzyl-2-methyl-3-oxo-3a,4,6,7-tetrahydro-2H-pyrazolo[4,3-c]pyridin-5(3H)-yl)-1-oxo-5-(pyridin-2-yl)pentan-2-yl)-2-methylpropanamide]", "values": [
      {"measurement": "EC50", "setting": "human ghrelin receptor", "result": "< 20", "unit": "nM"},
      {"measurement": "CLint scaled at 1 microM", "setting": "[1]", "result": 19.7, "unit": "mL/min/kg"},
      {"measurement": "Ratio of HLM CLint over comparison 1", "setting": "[1]", "result": 6.6}
    ]},
    {"smiles": "CN1N=C2CCN(C(=O)[C@@H](CCCc3ccccc3CO)NC(=O)C(C)(C)N)C[C@@]2(Cc2ccccc2)C1=O", "note": "[Example 8, 2-amino-N—((R)-1-((R)-3a-benzyl-2-methyl-3-oxo-3a,4,6,7-tetrahydro-2H-pyrazolo[4,3-c]pyridin-5(3H)-yl)-5-(2-(hydroxymethyl)phenyl)-1-oxopentan-2-yl)-2-methylpropanamide]", "values": [
      {"measurement": "EC50", "setting": "human ghrelin receptor", "result": "< 20", "unit": "nM"},
      {"measurement": "CLint scaled at 1 microM", "setting": "[1]", "result": 48.5, "unit": "mL/min/kg"},
      {"measurement": "Ratio of HLM CLint over comparison 1", "setting": "[1]", "result": 2.7}
    ]},
    {"smiles": "CN1N=C2CCN(C(=O)[C@@H](CCc3ccc(CO)cc3F)NC(=O)C(C)(C)N)C[C@@]2(Cc2ccccc2)C1=O", "note": "[Example 4, 2-amino-N—((R)-1-((R)-3a-benzyl-2-methyl-3-oxo-3a,4,6,7-tetrahydro-2H-pyrazolo[4,3-c]pyridin-5(3H)-yl)-4-(2-fluoro-4-(hydroxymethyl)phenyl)-1-oxobutan-2-yl)-2-methylpropanamide]", "values": [
      {"measurement": "EC50", "setting": "human ghrelin receptor", "result": "< 20", "unit": "nM"},
      {"measurement": "CLint scaled at 1 microM", "setting": "[1]", "result": 21.7, "unit": "mL/min/kg"},
      {"measurement": "Ratio of HLM CLint over comparison 1", "setting": "[1]", "result": 6.0}
    ]},
    {"smiles": "CN1N=C2CCN(C(=O)[C@@H](CCCc3cccc(CO)c3)NC(=O)C(C)(C)N)C[C@@]2(Cc2ccccc2)C1=O", "note": "[Example 7, 2-amino-N—((R)-1-((R)-3a-benzyl-2-methyl-3-oxo-3a,4,6,7-tetrahydro-2H-pyrazolo[4,3-c]pyridin-5(3H)-yl)-5-(3-(hydroxymethyl)phenyl)-1-oxopentan-2-yl)-2-methylpropanamide]", "values": [
      {"measurement": "EC50", "setting": "human ghrelin receptor", "result": "< 20", "unit": "nM"},
      {"measurement": "CLint scaled at 1 microM", "setting": "[1]", "result": 53.5, "unit": "mL/min/kg"},
      {"measurement": "Ratio of HLM CLint over comparison 1", "setting": "[1]", "result": 2.4}
    ]},
    {"smiles": "CN1N=C2CCN(C(=O)[C@@H](CCCc3cccc(C(F)(F)F)n3)NC(=O)C(C)(C)N)C[C@@]2(Cc2ccccc2)C1=O", "note": "[Example 10, 2-amino-N—((R)-1-((R)-3a-benzyl-2-methyl-3-oxo-3a,4,6,7-tetrahydro-2H-pyrazolo[4,3-c]pyridin-5(3H)-yl)-1-oxo-5-(6-(trifluoromethyl)pyridin-2-yl)pentan-2-yl)-2-methylpropanamide]", "values": [
      {"measurement": "EC50", "setting": "human ghrelin receptor", "result": "< 20", "unit": "nM"},
      {"measurement": "CLint scaled at 1 microM", "setting": "[1]", "result": 44.2, "unit": "mL/min/kg"},
      {"measurement": "Ratio of HLM CLint over comparison 1", "setting": "[1]", "result": 2.9}
    ]},
    {"smiles": "CN1N=C2CCN(C(=O)[C@@H](CCc3cc(CO)ccc3F)NC(=O)C(C)(C)N)C[C@@]2(Cc2ccccc2)C1=O", "note": "[Example 5, 2-amino-N—((R)-1-((R)-3a-benzyl-2-methyl-3-oxo-3a,4,6,7-tetrahydro-2H-pyrazolo[4,3-c]pyridin-5(3H)-yl)-4-(2-fluoro-5-(hydroxymethyl)phenyl)-1-oxobutan-2-yl)-2-methylpropanamide]", "values": [
      {"measurement": "EC50", "setting": "human ghrelin receptor", "result": "< 20", "unit": "nM"},
      {"measurement": "CLint scaled at 1 microM", "setting": "[1]", "result": 44.6, "unit": "mL/min/kg"},
      {"measurement": "Ratio of HLM CLint over comparison 1", "setting": "[1]", "result": 2.9}
    ]},
    {"smiles": "CC(C)(N)C(=O)N[C@H](CCc1ccccc1)C(=O)N1CCC2=NN(CC(F)(F)F)C(=O)[C@]2(Cc2ccccn2)C1", "note": "[Example 14, 2-amino-2-methyl-N—((R)-1-oxo-1-((R)-3-oxo-3a-(pyridin-2-ylmethyl)-2-(2,2,2-trifluoroethyl)-3a,4,6,7-tetrahydro-2H-pyrazolo[4,3-c]pyridin-5(3H)-yl)-4-phenylbutan-2-yl) propanamide]", "values": [
      {"measurement": "EC50", "setting": "human ghrelin receptor", "result": "< 20", "unit": "nM"},
      {"measurement": "CLint scaled at 1 microM", "setting": "[1]", "result": 51.5, "unit": "mL/min/kg"},
      {"measurement": "Ratio of HLM CLint over comparison 1", "setting": "[1]", "result": 2.5}
    ]},
    {"smiles": "CN1N=C2CCN(C(=O)[C@@H](CCc3ccccc3)NC(=O)C(C)(C)N)C[C@@]2(Cc2ccccc2)C1=O", "note": "[Example 2, 2-amino-N—((R)-1-((R)-3a-benzyl-2-methyl-3-oxo-3a,4,6,7-tetrahydro-2H-pyrazolo[4,3-c]pyridin-5(3H)-yl)-1-oxo-4-phenylbutan-2-yl)-2-methylpropanamide]", "values": [
      {"measurement": "EC50", "setting": "human ghrelin receptor", "result": "< 20", "unit": "nM"},
      {"measurement": "CLint scaled at 1 microM", "setting": "[1]", "result": 54.5, "unit": "mL/min/kg"},
      {"measurement": "Ratio of HLM CLint over comparison 1", "setting": "[1]", "result": 2.4}
    ]}
  ]
}
